pIC50: −log10 of the molar value.
Experiments:
Axl [1] = target: T1, Axl (Homo sapiens (Human), UniProt P30530); test: Axl binding assay
Protocol: Binding of the tracer to the kinase is detected using an EU-labeled anti-tag antibody. […] Binding of an inhibitor to the kinase competes for binding with the tracer, resulting in a loss of FRET-signal. At first a compound according to formula (I) was diluted in 20 mM Hepes pH 8.0, 1 mM DTT, 10 mM MgCl2 and 0.01% Brij35.

Axl [2] = target: T1, Axl; test: Cellular Axl phosphorylation assay; type: cell-based; details: HEK293 cells transfected with Axl cDNA, 1 hour incubation
Method in brief: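 Transiently Axl-transfected HEK293 cells, with a vector-only negative control, were treated with compound for 1 hour on the day after medium change. Axl phosphorylation was quantified by mesoscale detection.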

T1 sequence (P30530 26-894): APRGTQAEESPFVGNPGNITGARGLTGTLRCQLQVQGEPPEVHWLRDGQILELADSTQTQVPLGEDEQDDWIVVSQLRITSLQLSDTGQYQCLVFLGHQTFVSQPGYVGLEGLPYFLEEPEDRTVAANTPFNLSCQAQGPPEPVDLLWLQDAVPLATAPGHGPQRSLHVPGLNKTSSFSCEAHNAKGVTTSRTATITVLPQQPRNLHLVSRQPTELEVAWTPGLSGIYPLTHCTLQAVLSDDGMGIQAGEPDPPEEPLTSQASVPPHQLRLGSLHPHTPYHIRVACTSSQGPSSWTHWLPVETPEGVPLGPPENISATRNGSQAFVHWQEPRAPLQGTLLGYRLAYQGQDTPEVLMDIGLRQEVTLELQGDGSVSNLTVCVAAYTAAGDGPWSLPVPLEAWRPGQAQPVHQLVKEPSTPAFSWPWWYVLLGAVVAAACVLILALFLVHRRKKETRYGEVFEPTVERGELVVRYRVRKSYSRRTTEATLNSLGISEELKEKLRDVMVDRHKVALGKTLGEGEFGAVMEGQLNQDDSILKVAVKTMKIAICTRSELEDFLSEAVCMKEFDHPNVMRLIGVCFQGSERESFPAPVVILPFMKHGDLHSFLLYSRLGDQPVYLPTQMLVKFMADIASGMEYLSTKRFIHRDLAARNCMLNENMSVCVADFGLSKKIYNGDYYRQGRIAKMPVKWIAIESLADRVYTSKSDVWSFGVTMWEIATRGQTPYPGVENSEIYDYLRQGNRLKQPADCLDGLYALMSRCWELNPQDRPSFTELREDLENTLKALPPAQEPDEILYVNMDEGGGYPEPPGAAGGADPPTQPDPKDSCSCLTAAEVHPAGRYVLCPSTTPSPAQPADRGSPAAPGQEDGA

Compound | pIC50 (Axl [1]) | pIC50 (Axl [2])
COc1cc2c(Oc3ccc(NC(=O)c4nn(-c5ccc(F)cc5)cc4OC(C)C)cc3F)ccnc2cc1OCCCN1CCNCC1 [Example 67, N-[3-fluoro-4-[[6-methoxy-7-(3-piperazin-1-ylpropoxy)-4-quinolyl]oxy]phenyl]-1-(4-fluorophenyl)-4-isopropoxy-pyrazole-3-carboxamide] | > 6.30 | > 6.30
CCOc1cn(-c2ccc(F)cc2Cl)nc1C(=O)Nc1ccc(Oc2ccnc3cc(OCCCN4CCNCC4)c(OC)cc23)c(F)c1 [Example 68, 1-(2-chloro-4-fluoro-phenyl)-4-ethoxy-N-[3-fluoro-4-[[6-methoxy-7-(3-piperazin-1-ylpropoxy)-4-quinolyl]oxy]phenyl]pyrazole-3-carboxamide] | > 6.30 | > 6.30
CCOc1cn(-c2ccc(F)cc2C)nc1C(=O)Nc1ccc(Oc2ccnc3cc(OCCCN4CCNCC4)c(OC)cc23)c(F)c1 [Example 69, 4-ethoxy-N-[3-fluoro-4-[[6-methoxy-7-(3-piperazin-1-ylpropoxy)-4-quinolyl]oxy)phenyl]-1-(4-fluoro-2-methyl-phenyl)pyrazole-3-carboxamide] | > 6.30 | > 6.30
COCCOc1cn(-c2ccc(F)cc2)nc1C(=O)Nc1ccc(Oc2ccnc3cc(OCCCN4CCNCC4)c(OC)cc23)c(F)c1 [Example 70, N-[3-fluoro-4-[[6-methoxy-7-(3-piperazin-1-ylpropoxy)-4-quinolyl]oxy]phenyl]-1-(4-fluorophenyl)-4-(2-methoxyethoxy)pyrazole-3-carboxamide] | > 6.30 | > 6.30
COc1cc2c(Oc3ccc(NC(=O)c4nn(-c5ccc(F)cc5)cc4OCC4CCN(C)C4)cc3F)ccnc2cc1OCCCN1CCNCC1 (stereo not shown) [Example 71, N-[3-fluoro-4-[[6-methoxy-7-(3-piperazin-1-ylpropoxy)-4-quinolyl]oxy]phenyl]-1-(4-fluorophenyl)-4-[(1-methylpyrrolidin-3-yl)methoxy]pyrazole-3-carboxamide] | > 6.30 | 5.30 to 6.30
COc1cc2c(Oc3ccc(NC(=O)c4csc(-c5ccccc5)n4)cc3F)ccnc2cc1OCCCN1CCNCC1 [Example 72, N-[3-fluoro-4-[[6-methoxy-7-(3-piperazin-1-ylpropoxy)-4-quinolyl]oxy]phenyl]-2-phenyl-thiazole-4-carboxamide] | > 6.30 | > 6.30
COc1cc2c(Oc3ccc(NC(=O)c4nn(-c5ccc(F)cc5)cc4OC)cc3F)ccnc2cc1OCC1CCNCC1 [Example 73, N-[3-fluoro-4-[[6-methoxy-7-(4-piperidylmethoxy)-4-quinolyl]oxy]phenyl]-1-(4-fluorophenyl)-4-methoxy-pyrazole-3-carboxamide] | > 6.30 | > 6.30
CCOc1cn(-c2ccc(F)cc2C)nc1C(=O)Nc1ccc(Oc2ccnc3cc(OCC4CCNCC4)c(OC)cc23)c(F)c1 [Example 74, 4-ethoxy-N-[3-fluoro-4-[[6-methoxy-7-(4-piperidylmethoxy)-4-quinolyl]oxy]phenyl]-1-(4-fluoro-2-methyl-phenyl)pyrazole-3-carboxamide] | > 6.30 | > 6.30
COc1cc2c(Oc3ccc(NC(=O)c4nn(-c5ccc(F)cc5)cc4OCC4CC4)cc3F)ccnc2cc1OCC1CCNCC1 [Example 75, 4-(cyclopropylmethoxy)-N-[3-fluoro-4-[[6-methoxy-7-(4-piperidylmethoxy)-4-quinolyl]oxy]phenyl]-1-(4-fluorophenyl)pyrazole-3-carboxamide] | > 6.30 | > 6.30
COc1cc2c(Oc3ccc(NC(=O)c4nn(-c5ccc(F)cc5)cc4Br)cc3F)ccnc2cc1OCC1CCNCC1 [Example 76, 4-bromo-N-[3-fluoro-4-[[6-methoxy-7-(4-piperidylmethoxy)-4-quinolyl]oxy]phenyl]-1-(4-fluorophenyl)pyrazole-3-carboxamide] | > 6.30 | > 6.30

The next lines start with the values.

pIC50 (Axl [1]) | pIC50 (Axl [2]) | Compound
> 6.30 | > 6.30 | COc1cc2c(Oc3ccc(NC(=O)c4nn(-c5ccc(F)cc5)cc4OCc4ccc(F)cc4)cc3F)ccnc2cc1OCC1CCNCC1 [Example 77, N-[3-fluoro-4-[[6-methoxy-7-(4-piperidylmethoxy)-4-quinolyl]oxy]phenyl]-1-(4-fluorophenyl)-4-[(4-fluorophenyl)methoxy]pyrazole-3-carboxamide]
> 6.30 | > 6.30 | COc1cc2c(Oc3ccc(NC(=O)c4cc(C)n(C(C)(C)C)n4)cc3F)ccnc2cc1OCC1CCNCC1 [Example 78, 1-tert-butyl-N-[3-fluoro-4-[[6-methoxy-7-(4-piperidylmethoxy)-4-quinolyl]oxy]phenyl]-5-methyl-pyrazole-3-carboxamide]
> 6.30 | > 6.30 | COc1cc2c(Oc3ccc(NC(=O)c4nc(-c5ccccc5)oc4C)cc3F)ccnc2cc1OCC1CCNCC1 [Example 80, N-[3-fluoro-4-[[6-methoxy-7-(4-piperidylmethoxy)-4-quinolyl]oxy]phenyl]-5-methyl-2-phenyl-oxazole-4-carboxamide]
> 6.30 | 5.30 to 6.30 | COc1cc2c(Oc3ccc(NC(=O)c4csc(-c5ccccc5)n4)cc3F)ccnc2cc1OCC1CCNCC1 [Example 81, N-[3-fluoro-4-[[6-methoxy-7-(4-piperidylmethoxy)-4-quinolyl]oxy]phenyl]-2-phenyl-thiazole-4-carboxamide]
> 6.30 | > 6.30 | CCOc1cn(-c2ccc(F)cc2C)nc1C(=O)Nc1ccc(Oc2ccnc3cc(OCC4CCN(CC)CC4)c(OC)cc23)c(F)c1 [Example 82, 4-ethoxy-N-[4-[[7-[(1-ethyl-4-piperidyl)methoxy]-6-methoxy-4-quinolyl]oxy]-3-fluoro-phenyl]-1-(4-fluoro-2-methyl-phenyl)pyrazole-3-carboxamide]
> 6.30 | > 6.30 | CCOc1cn(-c2ccc(F)cc2C)nc1C(=O)Nc1ccc(Oc2ccnc3cc(OCC4CCN(CC(C)C)CC4)c(OC)cc23)c(F)c1 [Example 83, 4-ethoxy-N-[3-fluoro-4-[[7-[(1-isobutyl-4-piperidyl)methoxy]-6-methoxy-4-quinolyl]oxy]phenyl]-1-(4-fluoro-2-methyl-phenyl)pyrazole-3-carboxamide]
> 6.30 | > 6.30 | CCOc1cn(-c2ccc(F)cc2)nc1C(=O)Nc1ccc(Oc2ccnc3cc(OC)c(OC)cc23)cn1 [Example 84, N-[5-[(6,7-dimethoxy-4-quinolyl)oxy]-2-pyridyl]-4-ethoxy-1-(4-fluorophenyl)pyrazole-3-carboxamide]
> 6.30 | > 6.30 | CCOc1cn(-c2ccc(F)cc2C)nc1C(=O)Nc1ccc(Oc2ccnc3cc(OC)c(OC)cc23)cn1 [Example 85, N-[5-[(6,7-dimethoxy-4-quinolyl)oxy]-2-pyridyl]-4-ethoxy-1-(4-fluoro-2-methyl-phenyl)pyrazole-3-carboxamide]
> 6.30 | > 6.30 | CCOc1cn(-c2ccc(F)cc2Cl)nc1C(=O)Nc1ccc(Oc2ccnc3cc(OC)c(OC)cc23)cn1 [Example 86, 1-(2-chloro-4-fluoro-phenyl)-N-[5-[(6,7-dimethoxy-4-quinolyl)oxy]-2-pyridyl]-4-ethoxy-pyrazole-3-carboxamide]
5.30 to 6.30 | > 6.30 | COc1cc2nccc(Oc3ccc(NC(=O)c4nn(-c5ccc(F)cc5)cc4CCN(C)C)nc3)c2cc1OC [Example 87, N-[5-[(6,7-dimethoxy-4-quinolyl)oxy]-2-pyridyl]-4-(2-dimethylaminoethyl)-1-(4-fluorophenyl)pyrazole-3-carboxamide]
